Data published in ChEMBL document CHEMBL4507291 (2021).

Key:
[1] = target: Glutamate NMDA receptor (Rattus norvegicus) (UniProt P35439+Q00959+Q00960+Q00961+Q62645+Q8VHN2+Q9R1M7); settings: Compound concentration 10.0 uM
[2] = target: MAP/microtubule affinity-regulating kinase 3 (Homo sapiens) (UniProt P27448); experiment: MARK3 Kinase screen; settings: Compound concentration 1.0 uM
[3] = target: Tyrosine-protein kinase JAK2 (Homo sapiens) (UniProt O60674); experiment: JAK2 JH1 JH2 Kinase screen; settings: Compound concentration 1.0 uM
Chain of Tyrosine-protein kinase JAK2 (Homo sapiens) (O60674 whole entry): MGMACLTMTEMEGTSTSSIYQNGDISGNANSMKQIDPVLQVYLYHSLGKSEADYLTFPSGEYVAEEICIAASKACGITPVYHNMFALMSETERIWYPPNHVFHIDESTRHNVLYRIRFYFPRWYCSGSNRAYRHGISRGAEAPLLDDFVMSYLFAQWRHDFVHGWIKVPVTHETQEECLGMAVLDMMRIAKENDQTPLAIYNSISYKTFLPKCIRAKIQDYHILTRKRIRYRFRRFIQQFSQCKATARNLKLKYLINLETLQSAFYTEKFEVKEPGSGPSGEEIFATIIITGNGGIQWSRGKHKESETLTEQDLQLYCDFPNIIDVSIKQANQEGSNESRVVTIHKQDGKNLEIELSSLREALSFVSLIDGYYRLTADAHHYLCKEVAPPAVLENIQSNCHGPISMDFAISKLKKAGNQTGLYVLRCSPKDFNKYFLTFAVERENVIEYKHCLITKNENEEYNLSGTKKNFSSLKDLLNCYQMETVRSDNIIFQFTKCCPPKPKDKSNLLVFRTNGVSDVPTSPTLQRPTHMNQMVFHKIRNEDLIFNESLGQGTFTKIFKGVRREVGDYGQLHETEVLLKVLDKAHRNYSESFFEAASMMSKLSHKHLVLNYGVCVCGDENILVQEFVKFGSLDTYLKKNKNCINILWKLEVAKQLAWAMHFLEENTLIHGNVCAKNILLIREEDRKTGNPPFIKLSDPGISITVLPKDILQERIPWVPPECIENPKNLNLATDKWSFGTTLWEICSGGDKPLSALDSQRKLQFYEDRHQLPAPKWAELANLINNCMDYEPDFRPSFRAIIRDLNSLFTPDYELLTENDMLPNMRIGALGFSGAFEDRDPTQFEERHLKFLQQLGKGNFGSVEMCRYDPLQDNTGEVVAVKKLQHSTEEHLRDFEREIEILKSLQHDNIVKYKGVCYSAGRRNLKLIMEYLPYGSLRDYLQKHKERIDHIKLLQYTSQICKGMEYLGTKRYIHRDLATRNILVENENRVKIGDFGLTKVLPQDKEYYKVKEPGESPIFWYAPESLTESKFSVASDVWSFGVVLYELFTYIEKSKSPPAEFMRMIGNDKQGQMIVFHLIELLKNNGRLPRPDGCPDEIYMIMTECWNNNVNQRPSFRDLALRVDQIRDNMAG

[4] = target: Tyrosine-protein kinase Lyn (Homo sapiens) (UniProt P07948); experiment: LYN A Kinase screen; settings: Compound concentration 1.0 uM
Chain of Tyrosine-protein kinase Lyn (Homo sapiens) (P07948 2-512 limits assumed): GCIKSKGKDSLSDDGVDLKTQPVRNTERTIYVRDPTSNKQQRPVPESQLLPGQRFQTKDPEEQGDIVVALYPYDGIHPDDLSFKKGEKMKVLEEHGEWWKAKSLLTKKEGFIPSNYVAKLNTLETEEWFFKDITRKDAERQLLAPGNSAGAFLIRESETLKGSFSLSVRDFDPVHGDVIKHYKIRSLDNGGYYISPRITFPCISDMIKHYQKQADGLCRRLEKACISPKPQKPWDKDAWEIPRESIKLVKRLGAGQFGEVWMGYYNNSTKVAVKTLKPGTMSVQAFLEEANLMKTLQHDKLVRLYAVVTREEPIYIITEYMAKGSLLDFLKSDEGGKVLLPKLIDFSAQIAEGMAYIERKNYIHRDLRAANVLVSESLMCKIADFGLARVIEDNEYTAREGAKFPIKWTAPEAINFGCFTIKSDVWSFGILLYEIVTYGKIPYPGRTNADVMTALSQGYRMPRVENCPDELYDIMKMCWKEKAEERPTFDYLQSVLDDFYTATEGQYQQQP

[5] = target: T1, Dual specificity mitogen-activated protein kinase kinase 6 (Homo sapiens) (UniProt P52564); experiment: MAP2K6 (MKK6) Kinase screen; settings: Compound concentration 1.0 uM
T1 sequence (whole entry): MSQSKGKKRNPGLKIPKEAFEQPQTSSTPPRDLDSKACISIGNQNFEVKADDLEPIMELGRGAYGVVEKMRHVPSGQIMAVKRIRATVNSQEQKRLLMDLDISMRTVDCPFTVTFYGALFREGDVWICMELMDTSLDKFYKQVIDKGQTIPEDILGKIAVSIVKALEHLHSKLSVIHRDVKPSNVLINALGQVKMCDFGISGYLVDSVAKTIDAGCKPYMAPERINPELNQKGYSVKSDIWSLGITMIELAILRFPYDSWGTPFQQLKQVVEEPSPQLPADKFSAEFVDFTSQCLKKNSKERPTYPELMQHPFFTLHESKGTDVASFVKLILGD

[6] = target: T2, Mitogen-activated protein kinase kinase kinase 2 (Homo sapiens) (UniProt Q9Y2U5); experiment: MAP3K2 (MEKK2) Kinase screen; settings: Compound concentration 1.0 uM
T2 sequence (whole entry): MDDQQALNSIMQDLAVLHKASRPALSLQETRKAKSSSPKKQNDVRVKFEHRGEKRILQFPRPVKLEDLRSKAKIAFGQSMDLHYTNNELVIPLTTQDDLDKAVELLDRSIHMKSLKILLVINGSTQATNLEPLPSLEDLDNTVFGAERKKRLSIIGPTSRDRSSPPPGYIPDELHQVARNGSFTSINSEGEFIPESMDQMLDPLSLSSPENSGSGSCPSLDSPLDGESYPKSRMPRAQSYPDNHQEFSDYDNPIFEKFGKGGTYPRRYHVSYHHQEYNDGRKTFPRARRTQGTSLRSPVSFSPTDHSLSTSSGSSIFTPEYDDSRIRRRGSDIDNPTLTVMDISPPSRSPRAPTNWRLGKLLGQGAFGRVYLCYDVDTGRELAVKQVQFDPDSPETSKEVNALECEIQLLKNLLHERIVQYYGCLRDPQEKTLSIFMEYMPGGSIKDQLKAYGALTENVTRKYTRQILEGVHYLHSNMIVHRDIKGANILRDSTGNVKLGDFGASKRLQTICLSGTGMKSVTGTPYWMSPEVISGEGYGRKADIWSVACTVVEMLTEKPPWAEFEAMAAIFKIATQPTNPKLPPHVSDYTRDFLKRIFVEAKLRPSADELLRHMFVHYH

[7] = target: Dual specificity mitogen-activated protein kinase kinase 2 (Homo sapiens) (UniProt P36507); experiment: MAP2K2 (MEK2) Kinase screen; settings: Compound concentration 1.0 uM
Chain of Dual specificity mitogen-activated protein kinase kinase 2 (Homo sapiens) (P36507 whole entry): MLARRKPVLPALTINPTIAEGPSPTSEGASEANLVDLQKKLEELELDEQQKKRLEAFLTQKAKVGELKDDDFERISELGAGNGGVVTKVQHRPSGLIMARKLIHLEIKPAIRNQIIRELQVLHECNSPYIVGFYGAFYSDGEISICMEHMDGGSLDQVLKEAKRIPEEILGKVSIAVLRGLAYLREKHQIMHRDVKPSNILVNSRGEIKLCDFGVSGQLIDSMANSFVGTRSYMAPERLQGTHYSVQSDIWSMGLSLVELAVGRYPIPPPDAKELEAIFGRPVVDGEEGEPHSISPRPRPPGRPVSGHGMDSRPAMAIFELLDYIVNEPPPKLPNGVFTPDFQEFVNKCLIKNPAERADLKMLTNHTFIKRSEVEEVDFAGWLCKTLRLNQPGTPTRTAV

[8] = target: Adenosine receptor A1 (Homo sapiens) (UniProt P30542); settings: Compound concentration 10.0 uM
Chain of Adenosine receptor A1 (Homo sapiens) (P30542 whole entry): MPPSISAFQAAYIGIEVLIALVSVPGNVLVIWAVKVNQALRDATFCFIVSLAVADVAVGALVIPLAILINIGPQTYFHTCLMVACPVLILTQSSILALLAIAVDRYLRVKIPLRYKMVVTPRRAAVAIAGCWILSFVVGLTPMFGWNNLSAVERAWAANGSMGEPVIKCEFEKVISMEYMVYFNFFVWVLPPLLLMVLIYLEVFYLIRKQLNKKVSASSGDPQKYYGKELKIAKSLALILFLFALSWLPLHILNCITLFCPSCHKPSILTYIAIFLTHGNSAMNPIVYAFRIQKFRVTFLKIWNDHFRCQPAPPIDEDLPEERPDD

[9] = target: C-X-C chemokine receptor type 4 (Homo sapiens) (UniProt P61073); experiment: Chemokine CXCR4 Eurofins-Panlabs radioligand binding assay; parameters: ligand concentration 0.03 nM; settings: Compound concentration 10.0 uM
Chain of C-X-C chemokine receptor type 4 (Homo sapiens) (P61073 whole entry): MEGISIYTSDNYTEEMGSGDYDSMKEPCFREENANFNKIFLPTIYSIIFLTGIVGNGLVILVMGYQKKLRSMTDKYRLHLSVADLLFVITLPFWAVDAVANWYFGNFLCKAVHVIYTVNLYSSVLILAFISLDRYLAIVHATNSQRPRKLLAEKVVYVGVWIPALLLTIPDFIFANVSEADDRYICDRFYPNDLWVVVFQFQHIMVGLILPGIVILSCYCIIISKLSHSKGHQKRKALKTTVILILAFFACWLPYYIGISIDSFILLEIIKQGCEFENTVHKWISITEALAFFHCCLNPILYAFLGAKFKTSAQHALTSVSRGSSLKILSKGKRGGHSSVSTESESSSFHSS

[10] = target: Serine/threonine-protein kinase MRCK beta (Homo sapiens) (UniProt Q9Y5S2); experiment: CDC42 BPB (MRCKB) Kinase screen; settings: Compound concentration 1.0 uM
Chain of Serine/threonine-protein kinase MRCK beta (Homo sapiens) (Q9Y5S2 whole entry): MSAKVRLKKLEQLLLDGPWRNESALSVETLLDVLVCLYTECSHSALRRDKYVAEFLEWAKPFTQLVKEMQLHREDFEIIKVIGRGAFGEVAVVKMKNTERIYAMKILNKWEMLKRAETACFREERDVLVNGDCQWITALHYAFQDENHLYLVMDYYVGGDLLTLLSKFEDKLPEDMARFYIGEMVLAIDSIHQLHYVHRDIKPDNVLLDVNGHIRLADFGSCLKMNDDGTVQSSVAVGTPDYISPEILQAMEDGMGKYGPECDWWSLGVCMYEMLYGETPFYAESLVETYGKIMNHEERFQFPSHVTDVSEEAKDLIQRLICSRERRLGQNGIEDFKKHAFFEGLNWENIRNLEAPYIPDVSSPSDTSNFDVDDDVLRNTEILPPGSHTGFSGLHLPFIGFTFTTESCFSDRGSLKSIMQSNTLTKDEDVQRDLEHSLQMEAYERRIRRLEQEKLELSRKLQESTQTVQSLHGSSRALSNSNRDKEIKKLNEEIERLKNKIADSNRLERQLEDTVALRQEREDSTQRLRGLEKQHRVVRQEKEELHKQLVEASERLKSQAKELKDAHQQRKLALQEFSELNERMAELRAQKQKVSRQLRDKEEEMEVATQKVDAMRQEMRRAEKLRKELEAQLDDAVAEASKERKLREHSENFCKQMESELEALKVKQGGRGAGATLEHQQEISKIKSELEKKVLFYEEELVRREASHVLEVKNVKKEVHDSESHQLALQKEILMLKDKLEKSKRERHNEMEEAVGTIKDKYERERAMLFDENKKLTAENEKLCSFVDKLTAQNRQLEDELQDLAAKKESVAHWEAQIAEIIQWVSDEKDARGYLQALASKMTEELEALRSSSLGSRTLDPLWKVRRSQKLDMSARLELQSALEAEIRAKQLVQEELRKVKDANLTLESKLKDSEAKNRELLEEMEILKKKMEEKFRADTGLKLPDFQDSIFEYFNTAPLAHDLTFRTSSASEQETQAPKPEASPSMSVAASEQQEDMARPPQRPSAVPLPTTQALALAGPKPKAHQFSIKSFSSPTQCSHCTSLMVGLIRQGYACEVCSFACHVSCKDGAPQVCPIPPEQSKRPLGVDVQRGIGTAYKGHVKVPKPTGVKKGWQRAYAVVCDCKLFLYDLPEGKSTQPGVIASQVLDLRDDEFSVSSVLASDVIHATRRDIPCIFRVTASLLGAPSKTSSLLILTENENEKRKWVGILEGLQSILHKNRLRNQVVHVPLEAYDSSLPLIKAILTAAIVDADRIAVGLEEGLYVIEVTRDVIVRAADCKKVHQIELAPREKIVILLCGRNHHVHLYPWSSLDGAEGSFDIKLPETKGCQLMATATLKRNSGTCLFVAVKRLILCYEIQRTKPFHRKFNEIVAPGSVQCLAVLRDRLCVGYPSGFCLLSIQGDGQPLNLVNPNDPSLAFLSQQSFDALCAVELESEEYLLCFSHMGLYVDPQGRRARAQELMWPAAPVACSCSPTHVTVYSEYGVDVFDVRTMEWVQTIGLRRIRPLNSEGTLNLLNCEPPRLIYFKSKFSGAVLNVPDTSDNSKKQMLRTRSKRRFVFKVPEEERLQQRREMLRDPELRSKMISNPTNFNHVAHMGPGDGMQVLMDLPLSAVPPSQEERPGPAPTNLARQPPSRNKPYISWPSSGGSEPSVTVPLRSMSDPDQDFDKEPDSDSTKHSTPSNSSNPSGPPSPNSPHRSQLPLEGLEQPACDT

[11] = target: CDK8/Cyclin C (Homo sapiens) (UniProt P49336+P24863); experiment: CDK8/cyclin C Kinase screen; type: protein-complex assay; settings: Compound concentration 1.0 uM
[12] = test system: T3, Receptor-type tyrosine-protein kinase FLT3 (Homo sapiens), P36888 [D835Y]; experiment: FLT3 D835Y Kinase screen; settings: Compound concentration 1.0 uM
T3 sequence (whole entry): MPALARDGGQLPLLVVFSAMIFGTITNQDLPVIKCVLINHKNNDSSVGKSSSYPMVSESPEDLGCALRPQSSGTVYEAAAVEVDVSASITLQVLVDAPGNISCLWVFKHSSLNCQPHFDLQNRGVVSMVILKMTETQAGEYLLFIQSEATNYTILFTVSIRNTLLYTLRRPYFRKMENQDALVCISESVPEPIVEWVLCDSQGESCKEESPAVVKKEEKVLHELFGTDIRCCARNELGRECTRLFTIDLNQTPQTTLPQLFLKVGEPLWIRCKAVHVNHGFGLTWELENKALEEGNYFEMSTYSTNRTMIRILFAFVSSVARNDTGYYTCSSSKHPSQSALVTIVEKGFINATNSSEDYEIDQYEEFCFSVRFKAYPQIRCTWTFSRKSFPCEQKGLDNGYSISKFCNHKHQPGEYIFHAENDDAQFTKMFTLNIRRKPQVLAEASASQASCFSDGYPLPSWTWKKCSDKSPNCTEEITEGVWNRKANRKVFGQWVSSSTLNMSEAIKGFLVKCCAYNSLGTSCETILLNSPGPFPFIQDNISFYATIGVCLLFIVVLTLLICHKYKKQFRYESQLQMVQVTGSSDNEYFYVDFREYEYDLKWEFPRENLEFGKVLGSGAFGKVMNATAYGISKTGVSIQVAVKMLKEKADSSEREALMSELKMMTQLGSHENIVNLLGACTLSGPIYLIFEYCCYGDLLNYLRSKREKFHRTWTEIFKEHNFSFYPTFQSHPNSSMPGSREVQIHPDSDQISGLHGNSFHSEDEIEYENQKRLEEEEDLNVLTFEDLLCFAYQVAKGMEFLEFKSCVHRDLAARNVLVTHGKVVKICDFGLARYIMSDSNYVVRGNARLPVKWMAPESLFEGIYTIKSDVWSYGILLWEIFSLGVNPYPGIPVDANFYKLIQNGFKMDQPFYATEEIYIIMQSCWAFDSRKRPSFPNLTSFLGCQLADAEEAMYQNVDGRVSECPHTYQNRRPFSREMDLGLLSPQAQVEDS

Measured: inhibition

C[C@@H]1CN(c2cc(-c3n[nH]c4ccc(OC5(C)CC5)cc34)ncn2)C[C@H](C)O1 [MLi-2]
inactive: [1] 5% | [2] 1.57% | [3] -4.32% | [4] 1.05% | [5] -2.67% | [6] 7.58% | [7] 20.3% | [8] 29% | [9] 3% | [10] 4.34% | [11] 8.75% | [12] 9.6%
